Measurements reported in US20240150375A1, “MACROCYCLIC COMPOUNDS AND USES THEREOF” (Theseus Pharmaceuticals, Inc., priority 2021, published 2024).

How the values were obtained:
EGFR^L858R/T790M/C797S = EGFR^L858R/T790M/C797S (Homo sapiens, UniProt P00533, C797S/L858R/T790M); assay: HTRF KinEASE-TK in vitro kinase assay, EGFR L858R/T790M/C797S (LTC); assay type: biochemical; settings: EGFR L858R/T790M/C797S kinase inhibition
From the text: (§1) The biological activity of compounds described herein can be studied according to standard methods known in the art. Methods can be used to study inhibition of EGFR, including mutant forms of EGFR comprising L858R, T790M, C797S, and/or Del19 mutations, or any combination thereof (e.g., L858R single, double, or triple mutants). Exemplary, non-limiting methods are described herein.
(§2) Assays using an in vitro kinase assay kit (HTRF KinEASE-TK kit) can be used to study the inhibitory activity of compounds described herein with respect to EGFR mutants such as ECFR^L858R, EGFR^L858R/T790M, and EGFR^L858R/T790M/C797S.
(§3) One hundred thirty six compounds were studied using the kinase (EGFR) and BA/F3 assays described herein, with more than 60% of the tested compounds providing IC50<50 nM values in all six assays. Accordingly, compounds of the invention are a new general class of kinase inhibitors, including potent inhibitors of EGFR mutants.
(§4) Exemplary kinase inhibition (Kinase) and anti-proliferation activity (Ba/F3) data are shown in Table 1 for certain compounds of the invention and are categorized according to the below legend.

EGFR^L858R/T790M = EGFR^L858R/T790M (Homo sapiens, UniProt P00533, L858R/T790M); assay: HTRF KinEASE-TK in vitro kinase assay, EGFR L858R/T790M (LT); assay type: biochemical; settings: EGFR L858R/T790M kinase inhibition
From the text: as §1, §2, §3, §4

EGFR^L858R = EGFR^L858R (Homo sapiens, UniProt P00533, L858R); assay: HTRF KinEASE-TK in vitro kinase assay, EGFR L858R (L); assay type: biochemical; settings: EGFR L858R kinase inhibition
From the text: as §1, §2, §3, §4

[1] = target: Ba/F3 EGFR-Del19/T790M/C797S (Homo sapiens, UniProt P00533, T790M/C797S, cells depend on it, form not given); assay: Ba/F3 viability assay (CellTiter-Glo), EGFR-Del19/T790M/C797S (DTC); assay type: cell-based; settings: Ba/F3 EGFR-Del19/T790M/C797S anti-proliferation; read-out: BAF3 DTC IC50
From the text: (§5) Inhibition of cell proliferation can be studied using Ba/F3 viability assays, including the Promega CellTiter-Glo cell viability assay. This assay can be used to study the effect of compounds described herein in the following assays: (1) Ba/F3 Parental; (2) Ba/F3 EGFR-Del19/T790M; (3); Ba/F3 EGFR-Del19/C797S; and (4) Ba/F3 EGFR-Del119/T790M/C797S.
as §3, §4

Ba/F3 EGFR-Del19/T790M = Ba/F3 EGFR-Del19/T790M (Homo sapiens, UniProt P00533, T790M, cells depend on it, form not given); assay: Ba/F3 viability assay (CellTiter-Glo), EGFR-Del19/T790M (DT); assay type: cell-based; settings: Ba/F3 EGFR-Del19/T790M anti-proliferation; read-out: BAF3 DT IC50
From the text: as §5, §3, §4

Ba/F3 EGFR-Del19/C797S = Ba/F3 EGFR-Del19/C797S (Homo sapiens, UniProt P00533, C797S, cells depend on it, form not given); assay: Ba/F3 viability assay (CellTiter-Glo), EGFR-Del19/C797S (DC); assay type: cell-based; settings: Ba/F3 EGFR-Del19/C797S anti-proliferation; read-out: BAF3 DC IC50
From the text: as §5, §3, §4

Ba/F3 EGFR-Del19/T790M, sequence (P00533 with tags, fused parts or gaps DEL746-750/T790M, form open): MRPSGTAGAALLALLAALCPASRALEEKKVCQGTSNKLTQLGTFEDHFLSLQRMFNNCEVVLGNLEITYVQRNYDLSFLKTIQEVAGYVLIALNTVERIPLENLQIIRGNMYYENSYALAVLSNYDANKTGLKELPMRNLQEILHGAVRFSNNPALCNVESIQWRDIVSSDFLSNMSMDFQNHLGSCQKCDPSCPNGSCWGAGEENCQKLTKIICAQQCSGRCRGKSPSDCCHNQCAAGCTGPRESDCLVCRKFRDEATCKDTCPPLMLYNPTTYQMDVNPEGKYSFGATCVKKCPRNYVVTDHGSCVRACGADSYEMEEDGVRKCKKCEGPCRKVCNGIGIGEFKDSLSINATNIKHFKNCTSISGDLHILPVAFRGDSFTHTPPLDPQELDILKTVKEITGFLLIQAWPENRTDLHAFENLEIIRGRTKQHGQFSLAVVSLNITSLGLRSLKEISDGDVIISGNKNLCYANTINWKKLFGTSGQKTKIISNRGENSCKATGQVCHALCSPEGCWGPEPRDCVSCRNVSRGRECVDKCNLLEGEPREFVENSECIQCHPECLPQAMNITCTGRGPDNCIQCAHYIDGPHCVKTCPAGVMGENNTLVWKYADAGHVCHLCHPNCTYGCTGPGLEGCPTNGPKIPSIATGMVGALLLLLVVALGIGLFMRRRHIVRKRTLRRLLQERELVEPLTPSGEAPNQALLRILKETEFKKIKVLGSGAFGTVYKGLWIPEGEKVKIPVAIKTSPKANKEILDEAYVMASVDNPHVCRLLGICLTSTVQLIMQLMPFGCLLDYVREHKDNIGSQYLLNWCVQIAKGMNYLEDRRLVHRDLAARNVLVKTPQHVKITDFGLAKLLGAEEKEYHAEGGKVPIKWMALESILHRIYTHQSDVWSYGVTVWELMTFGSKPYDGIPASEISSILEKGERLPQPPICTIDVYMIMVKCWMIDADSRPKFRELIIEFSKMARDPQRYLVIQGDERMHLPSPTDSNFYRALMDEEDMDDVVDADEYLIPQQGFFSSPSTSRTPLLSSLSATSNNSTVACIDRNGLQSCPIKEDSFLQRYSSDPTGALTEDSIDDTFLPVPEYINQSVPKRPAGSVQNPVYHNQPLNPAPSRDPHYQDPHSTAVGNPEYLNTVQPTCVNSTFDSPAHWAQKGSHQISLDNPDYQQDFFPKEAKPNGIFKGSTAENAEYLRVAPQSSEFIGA
EGFR^L858R, sequence (P00533 25-1210 L858R): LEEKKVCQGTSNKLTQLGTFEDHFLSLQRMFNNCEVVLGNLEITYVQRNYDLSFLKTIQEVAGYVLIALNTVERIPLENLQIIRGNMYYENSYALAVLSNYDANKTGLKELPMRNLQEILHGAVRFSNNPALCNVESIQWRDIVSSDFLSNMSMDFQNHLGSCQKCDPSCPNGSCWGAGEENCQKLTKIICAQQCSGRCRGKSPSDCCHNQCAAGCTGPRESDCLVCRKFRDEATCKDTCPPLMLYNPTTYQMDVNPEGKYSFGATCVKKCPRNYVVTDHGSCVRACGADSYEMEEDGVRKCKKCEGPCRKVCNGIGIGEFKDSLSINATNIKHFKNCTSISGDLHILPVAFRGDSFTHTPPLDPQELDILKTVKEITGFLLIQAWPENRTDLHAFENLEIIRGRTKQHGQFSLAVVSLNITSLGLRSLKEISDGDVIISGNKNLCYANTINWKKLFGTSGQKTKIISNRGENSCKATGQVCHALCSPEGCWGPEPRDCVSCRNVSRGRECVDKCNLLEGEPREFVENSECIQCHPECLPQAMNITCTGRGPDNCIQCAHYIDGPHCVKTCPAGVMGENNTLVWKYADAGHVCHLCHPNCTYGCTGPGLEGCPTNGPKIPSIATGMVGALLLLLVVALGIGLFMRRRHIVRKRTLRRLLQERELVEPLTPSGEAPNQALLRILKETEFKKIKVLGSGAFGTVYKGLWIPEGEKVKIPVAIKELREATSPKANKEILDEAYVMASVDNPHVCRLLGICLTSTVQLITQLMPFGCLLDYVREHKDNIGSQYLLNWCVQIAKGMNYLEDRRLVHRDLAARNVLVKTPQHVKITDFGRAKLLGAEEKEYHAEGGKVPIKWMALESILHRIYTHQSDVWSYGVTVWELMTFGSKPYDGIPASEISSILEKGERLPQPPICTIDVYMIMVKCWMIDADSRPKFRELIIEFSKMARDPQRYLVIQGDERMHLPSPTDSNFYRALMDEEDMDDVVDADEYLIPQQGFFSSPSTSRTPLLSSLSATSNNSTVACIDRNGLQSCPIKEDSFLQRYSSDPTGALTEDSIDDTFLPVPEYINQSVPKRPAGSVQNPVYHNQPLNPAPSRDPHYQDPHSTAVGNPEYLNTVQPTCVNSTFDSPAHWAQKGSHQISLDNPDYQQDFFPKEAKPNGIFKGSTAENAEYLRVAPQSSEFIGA
EGFR^L858R/T790M/C797S, sequence (P00533 25-1210 T790M/C797S/L858R): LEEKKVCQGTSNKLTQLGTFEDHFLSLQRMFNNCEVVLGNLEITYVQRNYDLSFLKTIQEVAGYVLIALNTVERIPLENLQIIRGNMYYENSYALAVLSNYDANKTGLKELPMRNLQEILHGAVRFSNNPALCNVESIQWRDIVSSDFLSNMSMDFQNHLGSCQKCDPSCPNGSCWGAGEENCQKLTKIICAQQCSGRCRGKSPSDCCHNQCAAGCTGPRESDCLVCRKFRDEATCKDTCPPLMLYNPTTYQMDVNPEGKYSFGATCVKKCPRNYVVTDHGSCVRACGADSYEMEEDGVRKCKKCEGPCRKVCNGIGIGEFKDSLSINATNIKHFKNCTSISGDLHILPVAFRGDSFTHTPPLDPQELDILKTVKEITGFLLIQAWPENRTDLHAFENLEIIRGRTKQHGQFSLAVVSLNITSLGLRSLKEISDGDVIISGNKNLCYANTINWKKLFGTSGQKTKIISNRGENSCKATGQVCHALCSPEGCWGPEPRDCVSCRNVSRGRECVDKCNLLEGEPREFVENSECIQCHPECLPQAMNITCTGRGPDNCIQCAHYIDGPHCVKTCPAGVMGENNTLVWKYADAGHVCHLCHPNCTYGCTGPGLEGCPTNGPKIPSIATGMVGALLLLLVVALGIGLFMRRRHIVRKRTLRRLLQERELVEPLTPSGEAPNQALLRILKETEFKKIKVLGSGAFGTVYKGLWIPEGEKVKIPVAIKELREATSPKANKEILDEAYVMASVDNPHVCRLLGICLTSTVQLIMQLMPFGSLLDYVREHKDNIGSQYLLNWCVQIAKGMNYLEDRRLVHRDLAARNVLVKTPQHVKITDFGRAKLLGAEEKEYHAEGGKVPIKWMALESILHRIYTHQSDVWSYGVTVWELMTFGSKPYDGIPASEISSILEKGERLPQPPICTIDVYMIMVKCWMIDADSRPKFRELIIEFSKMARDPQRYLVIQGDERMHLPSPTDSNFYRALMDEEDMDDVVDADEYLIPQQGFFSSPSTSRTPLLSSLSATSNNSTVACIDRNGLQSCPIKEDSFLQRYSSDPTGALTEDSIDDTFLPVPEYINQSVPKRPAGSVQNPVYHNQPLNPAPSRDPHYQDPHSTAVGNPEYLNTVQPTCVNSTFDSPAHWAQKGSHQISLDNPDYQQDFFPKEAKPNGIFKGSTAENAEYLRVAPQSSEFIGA
Ba/F3 EGFR-Del19/C797S, sequence (P00533 with tags, fused parts or gaps DEL746-750/C797S, form open): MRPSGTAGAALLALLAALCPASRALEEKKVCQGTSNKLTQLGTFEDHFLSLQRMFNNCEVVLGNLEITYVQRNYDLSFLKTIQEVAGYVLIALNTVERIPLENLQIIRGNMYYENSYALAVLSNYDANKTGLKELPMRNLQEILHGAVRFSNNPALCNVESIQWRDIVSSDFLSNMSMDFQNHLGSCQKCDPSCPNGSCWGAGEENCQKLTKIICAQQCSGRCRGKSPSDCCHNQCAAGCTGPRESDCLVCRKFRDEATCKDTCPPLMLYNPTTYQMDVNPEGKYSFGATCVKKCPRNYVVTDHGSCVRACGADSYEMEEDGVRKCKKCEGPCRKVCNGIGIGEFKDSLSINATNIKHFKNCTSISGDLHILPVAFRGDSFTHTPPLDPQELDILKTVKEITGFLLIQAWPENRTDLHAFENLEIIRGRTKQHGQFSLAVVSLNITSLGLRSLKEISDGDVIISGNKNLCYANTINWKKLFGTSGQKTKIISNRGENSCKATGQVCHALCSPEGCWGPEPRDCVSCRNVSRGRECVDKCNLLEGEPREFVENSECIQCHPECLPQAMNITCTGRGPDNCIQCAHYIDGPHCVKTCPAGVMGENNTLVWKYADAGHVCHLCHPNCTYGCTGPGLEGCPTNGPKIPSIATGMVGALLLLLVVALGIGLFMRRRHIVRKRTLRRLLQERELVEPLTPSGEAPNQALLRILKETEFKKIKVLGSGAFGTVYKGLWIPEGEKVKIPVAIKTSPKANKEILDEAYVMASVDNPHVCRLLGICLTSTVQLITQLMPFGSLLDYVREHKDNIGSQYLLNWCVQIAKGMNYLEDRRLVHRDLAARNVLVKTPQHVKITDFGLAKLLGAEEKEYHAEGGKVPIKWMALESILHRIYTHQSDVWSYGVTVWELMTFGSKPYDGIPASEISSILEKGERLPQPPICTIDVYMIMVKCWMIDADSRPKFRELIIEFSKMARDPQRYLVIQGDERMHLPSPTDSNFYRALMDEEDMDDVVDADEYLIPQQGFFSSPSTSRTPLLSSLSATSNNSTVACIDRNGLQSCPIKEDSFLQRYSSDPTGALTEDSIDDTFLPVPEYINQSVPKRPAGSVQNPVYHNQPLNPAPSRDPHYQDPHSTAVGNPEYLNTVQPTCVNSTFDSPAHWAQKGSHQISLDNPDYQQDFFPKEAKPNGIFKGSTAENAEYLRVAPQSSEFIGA

Compound | IC50 (EGFR^L858R/T790M/C797S) | IC50 (EGFR^L858R/T790M) | IC50 (EGFR^L858R) | GI50 [1] | GI50 (Ba/F3 EGFR-Del19/T790M) | GI50 (Ba/F3 EGFR-Del19/C797S)
C[C@H]1CCOc2c(cnn2C)-c2nccc(n2)Nc2cc(c(-c3cc(CN4CCN(C)CC4)n(C)c3)cn2)O1 [(127), (10S)-5,10-dimethyl-13-[1-methyl-5-[(4-methylpiperazin-1-yl)methyl]pyrrol-3-yl]-7,11-dioxa-4,5,15,17,21,22-hexazatetracyclo[16.3.1.1^12,16.0^2,6]tricosa-1(22),2(6),3,12(23),13,15,18,20-octaene] | < 50 nM | < 50 nM | < 50 nM | < 50 nM | < 50 nM | < 50 nM
C[C@H]1CCOc2c(cnn2C)-c2nccc(n2)Nc2cc(c(-c3cnc(N4CCN(C)CC4)c(OCC(F)(F)F)c3)cn2)O1 [(128)] | < 50 nM | < 50 nM | < 50 nM | < 50 nM | 50 to 100 nM | 50 to 100 nM
C[C@H]1CCOc2c(cnn2C)-c2nccc(n2)Nc2cc(c(-c3ccc(N(C)CCN(C)C)cc3)cn2)O1 [(133)] | < 50 nM | < 50 nM | < 50 nM | < 50 nM | < 50 nM | < 50 nM
COc1cc(-c2cnc3cc2O[C@@H](C)CCOc2c(cnn2C)-c2nccc(n2)N3)cnc1N1CCN(C)CC1 [(137)] | < 50 nM | < 50 nM | < 50 nM | < 50 nM | < 50 nM | < 50 nM
C[C@H]1CCOc2c(cnn2C)-c2nccc(n2)Nc2cc(c(-c3ccc(N(C)CCN(C)C)nc3)cn2)O1 [(138)] | < 50 nM | < 50 nM | < 50 nM | < 50 nM | 50 to 100 nM | 50 to 100 nM
C[C@H]1CCOc2c(cnn2C)-c2nccc(n2)Nc2cc(c(-c3cnn(C4CCNCC4)c3)cn2)O1 [(141)] | < 50 nM | < 50 nM | < 50 nM | < 50 nM | < 50 nM | < 50 nM
C[C@H]1CCOc2c(cnn2C)-c2nccc(n2)Nc2cc(c(-c3cc(CN4CCOCC4)n(C)n3)cn2)O1 [(144)] | < 50 nM | < 50 nM | < 50 nM | < 50 nM | < 50 nM | < 50 nM
COC(=O)c1cc(-c2cnc3cc2O[C@@H](C)CCOc2c(cnn2C)-c2nccc(n2)N3)n(C)c1 [(145)] | < 50 nM | < 50 nM | 100 to 1000 nM | 100 to 1000 nM | 100 to 1000 nM | 100 to 1000 nM
C[C@H]1CCOc2c(cnn2C)-c2nccc(n2)Nc2cc(c(-c3ccc(CN4CCN(C)CC4)c(OCC(F)(F)F)c3)cn2)O1 [(146)] | < 50 nM | < 50 nM | < 50 nM | < 50 nM | < 50 nM | < 50 nM
COc1cc(-c2cnc3cc2O[C@@H](C)CCOc2c(cnn2C)-c2nccc(n2)N3)ccc1CN1CCN(C)CC1 [(147)] | < 50 nM | < 50 nM | < 50 nM | < 50 nM | < 50 nM | < 50 nM
C[C@H]1CCOc2c(cnn2C)-c2nccc(n2)Nc2cc(c(-c3cccc(NCCN(C)C)c3)cn2)O1 [(148)] | < 50 nM | < 50 nM | < 50 nM | < 50 nM | < 50 nM | < 50 nM
COc1cc(CN2CCN(C)CC2)ccc1-c1cnc2cc1O[C@@H](C)CCOc1c(cnn1C)-c1nccc(n1)N2 [(149)] | < 50 nM | < 50 nM | < 50 nM | < 50 nM | 50 to 100 nM | < 50 nM
CCOc1cc(-c2cnc3cc2O[C@@H](C)CCOc2c(cnn2C)-c2nccc(n2)N3)ccc1CN1CCN(C)CC1 [(150)] | < 50 nM | < 50 nM | < 50 nM | < 50 nM | < 50 nM | < 50 nM
C[C@H]1CCOc2c(cnn2C)-c2nccc(n2)Nc2cc(c(Cl)cn2)O1 [(151), (10S)-13-chloro-5,10-dimethyl-7,11-dioxa-4,5,15,17,21,22-hexazatetracyclo[16.3.1.112,16.02,6]tricosa-1(22),2(6),3,12(23),13,15,18,20-octaene] | < 50 nM | < 50 nM | 50 to 100 nM | 100 to 1000 nM | 100 to 1000 nM | 100 to 1000 nM
C[C@H]1CCOc2c(cnn2C)-c2nccc(n2)Nc2cc(c(-c3ccc(N4CCN(C)CC4)nc3)cn2)O1 [(152)] | < 50 nM | < 50 nM | < 50 nM | < 50 nM | < 50 nM | < 50 nM
C[C@H]1CCOc2c(cnn2C)-c2nccc(n2)Nc2cc(ccn2)O1 [(153)] | < 50 nM | < 50 nM | 100 to 1000 nM | 100 to 1000 nM | 100 to 1000 nM | 100 to 1000 nM
C[C@H]1CCOc2c(cnn2C)-c2nccc(n2)Nc2cc(c(-c3cccc(CN4CCN(C)CC4)c3)cn2)O1 [(159)] | < 50 nM | < 50 nM | < 50 nM | < 50 nM | < 50 nM | < 50 nM
C[C@H]1CCOc2c(cnn2C)-c2nccc(n2)Nc2cc(c(-c3ccc(CN4CCN(C)CC4)cc3)cn2)O1 [(160)] | < 50 nM | < 50 nM | < 50 nM | < 50 nM | < 50 nM | < 50 nM
CC1CCOc2c(cnn2C)-c2nccc(n2)Nc2cc(c(-c3ccc(CN4CCN(C)CC4)cc3)cn2)O1 (stereo not drawn) [(169), 5,10-dimethyl-13-[4-[(4-methylpiperazin-1-yl)methyl]phenyl]-7,11-dioxa-4,5,15,17,21,22-hexazatetracyclo[16.3.1.112,16.02,6]tricosa-1(22),2(6),3,12(23),13,15,18,20-octaene] | < 50 nM | < 50 nM | < 50 nM | < 50 nM | < 50 nM | < 50 nM
